ChEMBL document CHEMBL3580539, “Discovery of small molecule inhibitors targeting the SUMOSIM interaction using a protein interface consensus approach” (Medchemcomm, 2014)

Target: Small ubiquitin-related modifier 2/3 (SUMO 2/3) (Homo sapiens, UniProt P61956+P55854)
Test: Binding affinity to His-tagged SUMO2/3 (unknown origin) expressed in Escherichia coli BL21 (DE3) measured over 120 secs by SPR analysis

First: CC(NS(=O)(=O)c1ccc(Cl)c(Cl)c1)C(=O)NNC(=O)c1ccccc1O (stereo not drawn)
Second: COCC(C)n1c(NCc2ccccn2)nc2ccccc2c1=O (stereo not drawn)
The Kd of the first is 31-fold lower: 1.9 µM for the first, 59 µM for the second.

With `C=CCNc1nc(NCc2ccccn2)nc2ccccc12` the Kd was 29 µM.
